Reference: US20260232662A1, “MIR-124 INDUCER, AND PREPARATION METHOD THEREFOR AND USE THEREOF” (NANJING SYNNOCARE PHARMACEUTICAL TECHNOLOGY CO., LTD., priority 2023, published 2026)

System: miR-124
Assay: Induction of miR-124 expression in PBMC cells (qPCR)
Assay type: cell-based
Settings: Homo sapiens, 72 h, 0.1 μM compound, human PBMCs stimulated with PMA/ionomycin, miR-191 reference gene, read-out: miR-124 expression, Fold change vs DMSO
Method: This study evaluated the ability of the compound of the present invention to influence miR-124 transcriptional activity in vitro. The experiment analyzed miR-124 expression in human PBMCs (Sailybio) using quantitative PCR (qPCR).
Thawed human PBMCs (1 mL) were added to 19 mL of culture medium (RPMI1640+10% hFBS+1‰ 2-mercaptoethanol) and the PBMCs were incubated in a cell culture incubator for 30 minutes. The PBMCs were collected and the cells (3.0*10^6 cells/well/3 mL) were resuspended in medium containing PMA (10 ng/mL; Invivogen) and ionomycin (200 ng/mL; Invivogen). The cells were incubated in a 6-well plate for 48 hours. Diluted compound was added to the cells to achieve a final concentration of 0.1 μM. After 72 hours, the samples were centrifuged and the cells were collected.
Total miRNA was extracted from the cells using the MiPure Cell/Tissue miRNA Kit (Vazyme) according to the manufacturer's instructions, followed by purification. The purified samples were treated with genomic DNA elimination buffer, and reverse transcription was performed using a GeneAmp PCR System. The resulting cDNA was subjected to quantitative real-time PCR (qPCR) analysis on a QuantStudio™ 7 Flex Real-Time PCR System. Data analysis was performed using the QuantStudio 7 software with default settings to automatically determine Ct values, and the results were exported. In this assay, miR-191 was used as the reference gene, and the DMSO-treated group served as the control. The relative expression of miR-124 was calculated using the following formula: […]

Compound	fold induction at 0.1 µM
FC(F)(F)Oc1ccc(Nc2nc3ccc(Cl)cc3n3ccnc23)cc1Cl [Compound B102, 8-chloro-N-(3-chloro-4-(trifluoromethoxy)phenyl) imidazolo[1,2-a] quinoxalin-4-amine]	27.3
FC(F)(F)c1ccc(Nc2nc3ccc(Cl)cc3n3ccnc23)cc1 [Compound B103, 8-chloro-N-(4-(trifluoromethyl)phenyl) imidazolo[1,2-a] quinoxalin-4-amine]	25.5
Fc1cc(Nc2nc3ccc(Cl)cc3n3ccnc23)ccc1C(F)(F)F [Compound B104, 8-chloro-N-(3-fluoro-4-(trifluoromethyl)phenyl) imidazolo[1,2-a] quinoxalin-4-amine]	28.1
FC(F)(F)c1ccc(Nc2nc3ccc(Cl)cc3n3ccnc23)cc1Cl [Compound B105, 8-chloro-N-(3-chloro-4-(trifluoromethyl)phenyl) imidazolo[1,2-a] quinoxalin-4-amine]	27.8
FC1(F)Oc2ccc(Nc3nc4cc(Cl)ccc4n4ccnc34)cc2O1 [Compound B106, 7-chloro-N-(2,2-difluorobenzo[d] [1,3]dihydroxy-5-yl) imidazolo[1,2-a] quinoxalin-4-amine]	16.3
Fc1cc(Nc2nc3cc(Cl)ccc3n3ccnc23)ccc1OC(F)(F)F [Compound B107, 7-chloro-N-(3-fluoro-4-(trifluoromethoxy)phenyl) imidazolo[1,2-a] quinoxalin-4-amine]	24.4
FC(F)(F)c1ccc(Nc2nc3cc(Cl)ccc3n3ccnc23)cc1 [Compound B109, 7-chloro-N-(4-(trifluoromethyl)phenyl) imidazolo[1,2-a] quinoxalin-4-amine]	26.4
Fc1cc(Nc2nc3cc(Cl)ccc3n3ccnc23)ccc1C(F)(F)F [Compound B110, 7-chloro-N-(3-fluoro-4-(trifluoromethyl)phenyl) imidazolo[1,2-a] quinoxalin-4-amine]	25.5
FC(F)(F)c1ccc(Nc2nc3cc(Cl)ccc3n3ccnc23)cc1Cl [Compound B111, 7-chloro-N-(3-chloro-4-(trifluoromethyl)phenyl) imidazolo[1,2-a] quinoxalin-4-amine]	22.5
Fc1cc(NC2=Nc3cccc(Cl)c3N3CCN=C23)ccc1OC(F)(F)F [Compound B119, 9-chloro-N-(3-fluoro-4-(trifluoromethoxy)phenyl)-1,2-dihydroimidazo[1,2-a] quinoxalin-4-amine]	25.4
FC(F)(F)Oc1ccc(NC2=Nc3cccc(Cl)c3N3CCN=C23)cc1Cl [Compound B120, 9-chloro-N-(3-chloro-4-(trifluoromethoxy)phenyl)-1,2-dihydroimidazo[1,2-a] quinoxalin-4-amine]	22.6
Fc1cc(NC2=Nc3cccc(Cl)c3N3CCN=C23)ccc1C(F)(F)F [Compound B122, 9-chloro-N-(3-fluoro-4-(trifluoromethyl)phenyl)-1,2-dihydroimidazo[1,2-a] quinoxalin-4-amine]	27.3
FC(F)(F)c1ccc(NC2=Nc3cccc(Cl)c3N3CCN=C23)cc1Cl [Compound B123, 9-chloro-N-(3-chloro-4-(trifluoromethyl)phenyl)-1,2-dihydroimidazo[1,2-a] quinoxalin-4-amine]	24.3
Fc1cc(Cl)cc2c1N1CCN=C1C(Nc1ccc(OC(F)(F)F)cc1)=N2 [Compound B130, 7-chloro-9-fluoro-N-(4-(trifluoromethoxy)phenyl)-1,2-dihydroimidazo[1,2-a] quinoxalin-4-amine]	25.6
Fc1cc(NC2=Nc3cc(Cl)cc(F)c3N3CCN=C23)ccc1OC(F)(F)F [Compound B131, 7-chloro-9-fluoro-N-(3-fluoro-4-(trifluoromethoxy)phenyl)-1,2-dihydroimidazo[1,2-a] quinoxalin-4-amine]	27
Fc1cc(Cl)cc2c1N1CCN=C1C(Nc1ccc(OC(F)(F)F)c(Cl)c1)=N2 [Compound B132, 7-chloro-N-(3-chloro-4-(trifluoromethoxy)phenyl)-9-fluoro-1,2-dihydroimidazo[1,2-a] quinoxalin-4-amine]	27.6
Fc1cc(Cl)cc2c1N1CCN=C1C(Nc1ccc(C(F)(F)F)cc1)=N2 [Compound B133, 7-chloro-9-fluoro-N-(4-(trifluoromethyl)phenyl)-1,2-dihydroimidazo[1,2-a] quinoxalin-4-amine]	26.3
Fc1cc(NC2=Nc3cc(Cl)cc(F)c3N3CCN=C23)ccc1C(F)(F)F [Compound B134, 7-chloro-9-fluoro-N-(3-fluoro-4-(trifluoromethyl)phenyl)-1,2-dihydroimidazo[1,2-a] quinoxalin-4-amine]	27.5
Fc1cc(Cl)cc2c1N1CCN=C1C(Nc1ccc(C(F)(F)F)c(Cl)c1)=N2 [Compound B135, 7-chloro-N-(3-chloro-4-(trifluoromethyl)phenyl)-9-fluoro-1,2-dihydroimidazo[1,2-a] quinoxalin-4-amine]	24.9
FC(F)(F)Oc1ccc(NC2=Nc3cc(Cl)cc(Cl)c3N3CCN=C23)cc1 [Compound B136, 7,9-dichloro-N-(4-(trifluoromethoxy)phenyl)-1,2-dihydroimidazo[1,2-a] quinoxalin-4-amine]	34.1
Fc1cc(NC2=Nc3cc(Cl)cc(Cl)c3N3CCN=C23)ccc1OC(F)(F)F [Compound B137, 7,9-dichloro-N-(3-fluoro-4-(trifluoromethoxy)phenyl)-1,2-dihydroimidazo[1,2-a] quinoxalin-4-amine]	31.1
FC(F)(F)Oc1ccc(NC2=Nc3cc(Cl)cc(Cl)c3N3CCN=C23)cc1Cl [Compound B138, 7,9-dichloro-N-(3-chloro-4-(trifluoromethoxy)phenyl)-1,2-dihydroimidazo[1,2-a] quinoxalin-4-amine]	29.9
Fc1cc(NC2=Nc3cc(Cl)cc(Cl)c3N3CCN=C23)ccc1C(F)(F)F [Compound B140, 7,9-dichloro-N-(3-fluoro-4-(trifluoromethyl)phenyl)-1,2-dihydroimidazo[1,2-a] quinoxalin-4-amine]	38.4
FC(F)(F)c1ccc(NC2=Nc3cc(Cl)cc(Cl)c3N3CCN=C23)cc1Cl [Compound B141, 7,9-dichloro-N-(3-chloro-4-(trifluoromethyl)phenyl)-1,2-dihydroimidazo[1,2-a] quinoxalin-4-amine]	36.2
FC(F)(F)Oc1ccc(NC2=Nc3ccc(Cl)cc3N3CCN=C23)cc1 [Compound B142, 8-chloro-N-(4-(trifluoromethoxy)phenyl)-1,2-dihydroimidazo[1,2-a] quinoxalin-4-amine]	25.6
Fc1cc(NC2=Nc3ccc(Cl)cc3N3CCN=C23)ccc1OC(F)(F)F [Compound B143, 8-chloro-N-(3-fluoro-4-(trifluoromethoxy)phenyl)-1,2-dihydroimidazo[1,2-a] quinoxalin-4-amine]	28.4
FC(F)(F)Oc1ccc(NC2=Nc3ccc(Cl)cc3N3CCN=C23)cc1Cl [Compound B144, 8-chloro-N-(3-chloro-4-(trifluoromethoxy)phenyl)-1,2-dihydroimidazo[1,2-a] quinoxalin-4-amine]	27.8
FC(F)(F)c1ccc(NC2=Nc3ccc(Cl)cc3N3CCN=C23)cc1 [Compound B145, 8-chloro-N-(4-(trifluoromethyl)phenyl)-1,2-dihydroimidazo[1,2-a] quinoxalin-4-amine]	30
